Reference: patent publication US9023841B2, “Compositions and methods for the treatment of asthma and associated disorders” (University of Southern California, priority 2011, dated 2015)
“Also recorded” adds a separate entry of the source.

Tests used:
[1] = system: BALB/c mice; assay: OVA-induced AHR in BALB/c mice treated with autophagy inducers or inhibitor (whole body plethysmography, PenH); type: in vivo; details: i.p., DCMI 1 mg/kg, tamoxifen 100 μM, clonidine 0.1 mg/kg, carbamazepine 20 mg/kg, compared to OVA controls
Experimental: FIGS. 3A to 3E illustrate altered development of AHR and lung inflammation in BALB/c mice treated with autophagy inducers and inhibitor. FIG. 3A is a schematic for the sensitization and challenge protocol with administration of autophagy inhibitors and inducers via i.p. injection. FIGS. 3B and C show AHR was determined by whole body plethysmography and is expressed as mean PenH in the presence or absence of (FIG. 3B) autophagy inhibitor desmethylclomipramine (“DCMI”) 1 mg/kg or (FIG. 3C) autophagy inducers tamoxifen 100 μM, clonidine 0.1 mg/kg or carbamazepine 20 mg/kg. FIGS. 3D and E are a quantitative determination of cellular infiltration into BAL was determined by cytospin preparation in the presence or absence of (FIG. 3D) autophagy inhibitor and (FIG. 3E) autophagy inducers. Representative data from two independent experiments with 3 mice per group, expressed as mean±SEM. PBS refer to naïve BALB/c animals. Figure legend: Total: Total of number of cells in the BAL, PMN: polymorphonuclear cells, EOS: Eosinophils, MACRO: Macrophages, Lymph: Lymphocytes
Autophagy inducers (Carbamazepin, Tamoxifen, and Clonidine) and inhibitors (DCMI) were administered on days 10 to 13 (FIG. 9A). […] This was the opposite when treated with the autophagy inducers (Carbamazepin, Tamoxifen, and Clonidine) (FIG. 9C). Therefore, autophagy is an important mediator in AHR.
There are many reported small molecule inducers and inhibitors of autophagy (Balgi et al. (2009) PLoS One 4:e7124; Mizushima et al. (2006) Autophagy 2:302-304; Vooijs et al. (2001) EMBO Rep 2:292-297; Fujita et al. (2008) Mol Biol Cell 19:2092-2100; Kuma et al. (2004) Nature 432:1032-1036; Inoue et al. (2011) Biochem Biophys Res Commun 405:13-18). In preliminary studies, Applicant has used a range of different inducers (tamoxifen (Akbari et al. (2001) Nat Immunol 2:725-731), clonidine (Mizushima et al. (2006) Autophagy 2:302-304) and carbamazepine (Renna et al. (2010) J Biol Chem 285:11061-11067)) and one inhibitor (desmethylclomipramine (“DCMI”) (Balgi et al. (2009) PLoS One 4:e7124)). A standard sensitization and challenge protocol was used for the induction of AHR in BALB/c (FIG. 3A). […] This is in agreement with Applicant's findings using the Atg5Δ animals that inhibition of autophagy has a deleterious effect on lung function. When autophagy is induced (with tamoxifen, clonidine or carbamazepine) AHR after sensitization and challenge with OVA is reduced compared to controls (FIG. 3C). […] When autophagy is inhibited total cell numbers in the BAL are increased (FIG. 3D) in contrast, in the presence of autophagy inducers total cell numbers and in particular eosinophils are reduced (FIG. 3E).

[2] = system: BALB/c mice; assay: Cellular infiltration into BAL by cytospin preparation, OVA model; type: in vivo; details: OVA sensitized and challenged BALB/c, i.p. treatment
Experimental: FIGS. 3A to 3E illustrate altered development of AHR and lung inflammation in BALB/c mice treated with autophagy inducers and inhibitor. FIG. 3A is a schematic for the sensitization and challenge protocol with administration of autophagy inhibitors and inducers via i.p. injection. FIGS. 3B and C show AHR was determined by whole body plethysmography and is expressed as mean PenH in the presence or absence of (FIG. 3B) autophagy inhibitor desmethylclomipramine (“DCMI”) 1 mg/kg or (FIG. 3C) autophagy inducers tamoxifen 100 μM, clonidine 0.1 mg/kg or carbamazepine 20 mg/kg. FIGS. 3D and E are a quantitative determination of cellular infiltration into BAL was determined by cytospin preparation in the presence or absence of (FIG. 3D) autophagy inhibitor and (FIG. 3E) autophagy inducers. Representative data from two independent experiments with 3 mice per group, expressed as mean±SEM. PBS refer to naïve BALB/c animals. Figure legend: Total: Total of number of cells in the BAL, PMN: polymorphonuclear cells, EOS: Eosinophils, MACRO: Macrophages, Lymph: Lymphocytes […]

[3] = system: moderate to severe patients with asthma; details: clinical trial; cited from earlier work
[4] = system: BALB/c mice; assay: Acute HDM-induced AHR (PenH, methacholine challenge), a4-vFLIP peptide; type: in vivo; details: acute HDM model, 300 μg i.p. days 13 to 15, compared to HDM+TAT pep, P<0.003
Experimental: FIG. 9D illustrates a protocol to induce acute AHR by HDM. On day 1, naïve BALB/c mice (N=5 per group) received an intranasal (i.n.) injection with house dust mite (HDM) ([…]). After resting for 6 days, mice were treated intranasally (i.n.) with HDM ([…]) from days 7 to 14 and i.p. with the autophagy inducer a4-TAT-vFLIP (300 μg) on days 13 to 15. On day 16, the enhanced pause (PenH) variable was measured to determine airway hyperreactivity (AHR).
(§1) Increasing doses of methacholine, a muscarinic receptor agonist to induce AHR, was administered to the different treatment groups of mice and the PenH was determined. […] Ctrl group (dark triangles) after methacholine challenge. […] Therefore, the autophagy peptide inducer was able to reduce AHR after HDM challenge.

[5] = system: BALB/c mice; assay: Chronic OVA-induced AHR (PenH); type: in vivo; details: TAT as irrelevant peptide control
Experimental: BALB/c mice were treated with OVA to induce chronic AHR and administered a4-TAT-vFLIP (as autophagy inducer) and TAT (as irrelevant peptide, control). AHR was assessed by Pen H (enhanced pause).

[6] = system: BALB/c mice; assay: Lung histology (hematoxylin and eosin), OVA model; type: in vivo; details: OVA+vFLIP compared to OVA alone
Excerpt: (§2) Thereafter, lung sections were stained with hematoxylin and eosin (HE) from the different groups in the HDM and OVA models. Airway inflammation and remodeling were decreased in the HDM/OVA+vFLIP compared to OVA/HDM alone based on smooth muscle hyperplasia, epithelial cell proliferation, subepithelial fibrosis and basement membrane thickening.

[7] = system: BALB/c mice; assay: Acute OVA-induced AHR (PenH, methacholine challenge), a4-vFLIP peptide; type: in vivo; details: acute OVA model, 300 μg i.p. days 11 to 13, compared to OVA+TAT pep, P<0.003
Experimental: Briefly on day 1, naïve BALB/c mice (N=5 per group) received an intraperitoneal (i.p.) injection with ovalbumin (OVA) ([…]) in Alum (2 mg). After resting for 10 days, mice were treated intranasally (i.n.) with OVA (50 μg) and i.p. with the autophagy inducer α4-TAT-vFLIP ([…]) on days 11 to 13. On day 14, the enhanced pause (PenH) variable was measured to determine airway hyperreactivity (AHR).
as §1, with “Briefly, administration of alpha4-TAT-vFLIP (a.k.a. a4-vFLIP) peptide restores lung function in an acute model of OVA induced asthma. Increasing” for “Increasing”, “inducer a4-vFLIP” for “inducer”, “OVA” for “HDM”

[8] = system: BALB/c mice; assay: Lung histology (hematoxylin and eosin), HDM model; type: in vivo; details: HDM+vFLIP compared to HDM alone
Excerpt: as §2

CNCCCN1c2ccccc2CCc2ccc(Cl)cc21 [DCMI, desmethylclomipramine]
AHR (mean PenH) after sensitization and challenge with OVA [1]: greatly increased; also recorded: significant increase
total cell numbers in the BAL [2]: increased

NC(=O)N1c2ccccc2C=Cc2ccccc21 [carbamazepine]
AHR (mean PenH) after sensitization and challenge with OVA [1]: reduced
AHR (mean PenH) after sensitization and challenge with OVA ([1]; listed as Carbamazepin): opposite
efficacy for the treatment of asthma [3]: improve asthma; also recorded: high efficacy

Clc1cccc(Cl)c1N=C1NCCN1 [clonidine]
AHR (mean PenH) after sensitization and challenge with OVA [1]: reduced
AHR (mean PenH) after sensitization and challenge with OVA ([1]; listed as Clonidine): opposite

CC/C(=C(\c1ccccc1)c1ccc(OCCN(C)C)cc1)c1ccccc1 [tamoxifen]
AHR (mean PenH) after sensitization and challenge with OVA [1]: reduced
AHR (mean PenH) after sensitization and challenge with OVA ([1]; listed as Tamoxifen): opposite

RRRQRRKKRGY-G-LMNSFVCLIVSS (RRRQRRKKRGYGLMNSFVCLIVSS) [a4-vFLIP, autophagy peptide inducer, 24aa TAT-fused α4 vFLIP peptide]
AHR (PenH) after methacholine challenge [4]: statistically significant reduction
chronic AHR (PenH) [5]: decreased levels of AHR
Airway inflammation and remodeling (smooth muscle hyperplasia, epithelial cell proliferation, subepithelial fibrosis, basement membrane thickening) [6]: decreased
AHR (PenH) after methacholine challenge [7]: statistically significant reduction
Airway inflammation and remodeling (smooth muscle hyperplasia, epithelial cell proliferation, subepithelial fibrosis, basement membrane thickening) [8]: decreased
